Results taken from ChEMBL document CHEMBL5360570, “Discovery of pyrazolo[3,4-b]pyridine derivatives as novel and potent Mps1 inhibitors for the treatment of cancer” (Eur J Med Chem, 2023).

Assays:
ALK-KIF5B (Homo sapiens) = ALK-KIF5B (Homo sapiens) (UniProt Q9UM73+P33176); assay: Inhibition of ALK-KIF5B (unknown origin) assessed as residual activity at 1 uM relative to control; assay type: protein assay
[1] = tested on: ALK tyrosine kinase receptor (Homo sapiens), Q9UM73 [F1174S]; assay: Inhibition of ALK F1174S mutant (unknown origin) assessed as residual activity at 1 uM relative to control
Chain of ALK tyrosine kinase receptor (Homo sapiens), Q9UM73 [F1174S] (Q9UM73 whole entry F1174S): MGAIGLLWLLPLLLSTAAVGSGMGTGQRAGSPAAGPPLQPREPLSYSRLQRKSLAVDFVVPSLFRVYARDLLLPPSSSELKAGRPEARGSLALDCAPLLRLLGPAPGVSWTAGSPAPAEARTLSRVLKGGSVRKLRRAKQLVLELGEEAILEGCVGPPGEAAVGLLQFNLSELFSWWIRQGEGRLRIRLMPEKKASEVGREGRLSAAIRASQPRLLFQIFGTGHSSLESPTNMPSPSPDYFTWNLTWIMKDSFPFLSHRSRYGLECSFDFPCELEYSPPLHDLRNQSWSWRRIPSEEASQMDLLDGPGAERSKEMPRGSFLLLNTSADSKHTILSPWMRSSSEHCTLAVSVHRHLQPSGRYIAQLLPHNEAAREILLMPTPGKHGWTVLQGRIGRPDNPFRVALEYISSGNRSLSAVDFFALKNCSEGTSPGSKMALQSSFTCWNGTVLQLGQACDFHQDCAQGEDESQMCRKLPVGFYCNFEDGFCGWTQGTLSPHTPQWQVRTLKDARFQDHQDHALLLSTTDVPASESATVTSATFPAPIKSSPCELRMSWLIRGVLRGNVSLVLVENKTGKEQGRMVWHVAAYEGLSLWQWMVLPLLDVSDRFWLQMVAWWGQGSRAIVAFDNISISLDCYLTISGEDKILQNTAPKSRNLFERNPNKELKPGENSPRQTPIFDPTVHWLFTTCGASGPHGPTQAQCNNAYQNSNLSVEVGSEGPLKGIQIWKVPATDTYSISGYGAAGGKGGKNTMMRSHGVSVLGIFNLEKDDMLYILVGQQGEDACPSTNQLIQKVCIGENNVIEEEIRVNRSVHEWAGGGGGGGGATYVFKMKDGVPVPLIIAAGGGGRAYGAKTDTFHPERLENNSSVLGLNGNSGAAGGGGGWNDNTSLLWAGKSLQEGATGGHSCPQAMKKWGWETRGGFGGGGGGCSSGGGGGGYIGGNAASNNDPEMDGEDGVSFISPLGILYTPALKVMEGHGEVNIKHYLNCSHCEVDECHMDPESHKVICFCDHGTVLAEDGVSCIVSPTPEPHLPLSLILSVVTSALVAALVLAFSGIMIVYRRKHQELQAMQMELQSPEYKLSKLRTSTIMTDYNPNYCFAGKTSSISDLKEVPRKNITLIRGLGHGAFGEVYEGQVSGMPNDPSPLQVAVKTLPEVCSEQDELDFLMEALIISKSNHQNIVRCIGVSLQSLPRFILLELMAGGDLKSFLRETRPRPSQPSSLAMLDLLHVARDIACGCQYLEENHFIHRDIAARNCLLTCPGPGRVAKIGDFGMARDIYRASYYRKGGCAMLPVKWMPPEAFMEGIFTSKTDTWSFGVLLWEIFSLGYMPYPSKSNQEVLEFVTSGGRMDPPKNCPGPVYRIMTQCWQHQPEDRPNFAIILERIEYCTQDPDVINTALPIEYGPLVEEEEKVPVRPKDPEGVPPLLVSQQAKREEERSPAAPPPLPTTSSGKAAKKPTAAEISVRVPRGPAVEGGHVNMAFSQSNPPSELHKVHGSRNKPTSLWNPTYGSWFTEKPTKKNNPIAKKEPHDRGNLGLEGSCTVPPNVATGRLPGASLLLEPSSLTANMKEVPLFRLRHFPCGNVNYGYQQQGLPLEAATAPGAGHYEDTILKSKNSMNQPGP

ROS1-GOPC (Homo sapiens) = ROS1-GOPC (Homo sapiens) (UniProt P08922+Q9HD26); assay: Inhibition of ROS1-GOPC (unknown origin) assessed as residual activity at 1 uM relative to control; assay type: protein assay
[2] = molecular target: Tyrosine-protein kinase Fes/Fps (Homo sapiens) (UniProt P07332); assay: Inhibition of FES (unknown origin) assessed as residual activity at 1 uM relative to control
[3] = Half life in Sprague-Dawley rat at 10 mg/kg, po measured upto 24 hrs by LC-MS/MS analysis; assay type: ADME, organism-based; conditions: in vivo
[4] = molecular target: NUAK family SNF1-like kinase 2 (Homo sapiens) (UniProt Q9H093); assay: Inhibition of SNARK (unknown origin) assessed as residual activity at 1 uM relative to control
[5] = molecular target: Epithelial discoidin domain-containing receptor 1 (Homo sapiens) (UniProt Q08345); assay: Inhibition of DDR1 (unknown origin) assessed as residual activity at 1 uM relative to control
[6] = molecular target: Mitogen-activated protein kinase kinase kinase 9 (Homo sapiens) (UniProt P80192); assay: Inhibition of MLK1 (unknown origin) assessed as residual activity at 1 uM relative to control
[7] = molecular target: Tyrosine-protein kinase JAK3 (Homo sapiens) (UniProt P52333); assay: Inhibition of JAK3 (unknown origin) assessed as residual activity at 1 uM relative to control
Chain of Tyrosine-protein kinase JAK3 (Homo sapiens) (P52333 whole entry): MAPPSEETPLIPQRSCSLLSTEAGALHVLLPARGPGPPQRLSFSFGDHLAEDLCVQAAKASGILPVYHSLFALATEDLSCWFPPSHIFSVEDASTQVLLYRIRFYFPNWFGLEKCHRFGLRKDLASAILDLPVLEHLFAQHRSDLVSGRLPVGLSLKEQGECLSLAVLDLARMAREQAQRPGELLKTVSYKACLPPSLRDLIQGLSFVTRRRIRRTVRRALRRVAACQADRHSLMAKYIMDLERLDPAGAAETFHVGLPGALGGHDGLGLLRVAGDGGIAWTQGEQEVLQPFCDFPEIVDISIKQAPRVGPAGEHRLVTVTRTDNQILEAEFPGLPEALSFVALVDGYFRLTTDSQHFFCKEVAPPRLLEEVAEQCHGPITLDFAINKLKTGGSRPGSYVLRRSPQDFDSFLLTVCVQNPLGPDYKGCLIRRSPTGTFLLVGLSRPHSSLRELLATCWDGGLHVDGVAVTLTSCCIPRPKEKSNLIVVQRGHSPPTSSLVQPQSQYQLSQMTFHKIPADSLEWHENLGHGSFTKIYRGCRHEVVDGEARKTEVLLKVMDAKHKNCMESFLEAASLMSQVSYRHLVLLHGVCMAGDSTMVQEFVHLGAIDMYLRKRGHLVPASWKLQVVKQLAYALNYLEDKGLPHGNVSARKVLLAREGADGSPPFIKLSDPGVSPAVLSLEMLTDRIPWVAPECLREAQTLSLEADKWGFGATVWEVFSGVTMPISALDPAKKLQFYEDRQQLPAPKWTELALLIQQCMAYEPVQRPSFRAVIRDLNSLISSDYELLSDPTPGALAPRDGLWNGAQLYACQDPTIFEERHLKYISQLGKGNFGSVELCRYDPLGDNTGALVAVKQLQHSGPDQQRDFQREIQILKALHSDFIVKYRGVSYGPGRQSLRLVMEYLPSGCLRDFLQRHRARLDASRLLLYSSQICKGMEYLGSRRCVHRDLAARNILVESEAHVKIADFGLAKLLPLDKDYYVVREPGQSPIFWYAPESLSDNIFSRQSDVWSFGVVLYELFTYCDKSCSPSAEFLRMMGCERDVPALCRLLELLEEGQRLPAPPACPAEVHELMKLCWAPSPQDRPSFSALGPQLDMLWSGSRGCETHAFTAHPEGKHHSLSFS

[8] = tested on: ALK tyrosine kinase receptor (Homo sapiens), Q9UM73 [T1151M]; assay: Inhibition of ALK T1151M mutant (unknown origin) assessed as residual activity at 1 uM relative to control
Chain of ALK tyrosine kinase receptor (Homo sapiens), Q9UM73 [T1151M] (Q9UM73 whole entry T1151M): as the sequence (Q9UM73 whole entry F1174S) above, with T1151M, S1174F counted along it

[9] = Cmax in Sprague-Dawley rat at 2 mg/kg, iv measured upto 24 hrs by LC-MS/MS analysis; assay type: ADME, organism-based; parameters: time < 24 hrs, dose 2 mg/kg, route iv; conditions: in vivo
[10] = molecular target: Leucine-rich repeat serine/threonine-protein kinase 2 (Homo sapiens) (UniProt Q5S007); assay: Inhibition of LRRK2 (unknown origin) assessed as residual activity at 1 uM relative to control
[11] = molecular target: NUAK family SNF1-like kinase 1 (Homo sapiens) (UniProt O60285); assay: Inhibition of ARK5 (unknown origin) assessed as residual activity at 1 uM relative to control
[12] = Metabolic stability in human liver microsome assessed as intrinsic clearance preincubated for 10 mins followed by NADPH addition and measured upto 60 mins by LC-MS/MS analysis; assay type: ADME; conditions: liver microsomes, time < 70 min, read-out: CLH
[13] = Metabolic stability in human liver microsome assessed as parent compound remaining preincubated for 10 mins followed by NADPH addition and measured at 15 mins by LC-MS/MS analysis; assay type: ADME; conditions: liver microsomes, time 25 min, read-out: Stability
[14] = AUC (0 to infinity) in Sprague-Dawley rat at 10 mg/kg, po measured upto 24 hrs by LC-MS/MS analysis; assay type: ADME, organism-based; parameters: dose 10 mg/kg, time < 24 hrs, route po; conditions: in vivo
ALK-KLC1 (Homo sapiens) = ALK-KLC1 (Homo sapiens) (UniProt Q9UM73+Q07866); assay: Inhibition of ALK-KLC1 (unknown origin) assessed as residual activity at 1 uM relative to control; assay type: protein assay
[15] = Metabolic stability in human liver microsome assessed as parent compound remaining preincubated for 10 mins followed by NADPH addition and measured immediately by LC-MS/MS analysis; assay type: ADME; conditions: liver microsomes, read-out: Stability
[16] = molecular target: Leukocyte tyrosine kinase receptor (Homo sapiens) (UniProt P29376); assay: Inhibition of TYK1 (unknown origin) assessed as residual activity at 1 uM relative to control
Chain of Leukocyte tyrosine kinase receptor (Homo sapiens) (P29376 whole entry): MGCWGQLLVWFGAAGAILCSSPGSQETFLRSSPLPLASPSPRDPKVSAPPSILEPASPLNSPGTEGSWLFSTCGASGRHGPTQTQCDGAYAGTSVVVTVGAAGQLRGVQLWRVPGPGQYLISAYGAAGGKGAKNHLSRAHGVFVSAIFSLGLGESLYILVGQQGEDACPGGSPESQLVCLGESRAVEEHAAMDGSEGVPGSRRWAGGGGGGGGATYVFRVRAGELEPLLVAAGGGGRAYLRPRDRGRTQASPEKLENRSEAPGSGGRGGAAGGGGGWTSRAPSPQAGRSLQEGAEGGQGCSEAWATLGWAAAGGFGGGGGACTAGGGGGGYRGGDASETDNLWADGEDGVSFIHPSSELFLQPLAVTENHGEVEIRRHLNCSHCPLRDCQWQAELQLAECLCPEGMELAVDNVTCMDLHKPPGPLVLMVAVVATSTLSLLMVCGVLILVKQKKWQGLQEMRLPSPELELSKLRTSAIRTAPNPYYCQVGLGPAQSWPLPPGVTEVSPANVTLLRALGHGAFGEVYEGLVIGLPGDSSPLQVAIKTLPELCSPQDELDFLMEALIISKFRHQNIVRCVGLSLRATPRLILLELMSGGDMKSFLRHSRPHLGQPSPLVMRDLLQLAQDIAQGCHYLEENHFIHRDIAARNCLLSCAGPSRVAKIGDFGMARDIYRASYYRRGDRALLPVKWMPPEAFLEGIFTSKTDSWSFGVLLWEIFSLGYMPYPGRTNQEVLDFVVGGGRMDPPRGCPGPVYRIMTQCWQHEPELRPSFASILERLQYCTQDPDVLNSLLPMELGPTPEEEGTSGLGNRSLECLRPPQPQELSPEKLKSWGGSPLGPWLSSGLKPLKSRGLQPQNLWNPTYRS

[17] = tested on: ALK tyrosine kinase receptor (Homo sapiens), Q9UM73 [UNDEFINED MUTATION]; assay: Inhibition of ALK T1151/L1152 mutant (unknown origin) assessed as residual activity at 1 uM relative to control
Chain of ALK tyrosine kinase receptor (Homo sapiens), Q9UM73 [UNDEFINED MUTATION] (Q9UM73 whole entry, looked up, change not shown): as the sequence (Q9UM73 whole entry F1174S) above, with S1174F counted along it

Chain of ALK-KIF5B (Homo sapiens) (P33176 whole entry, looked up): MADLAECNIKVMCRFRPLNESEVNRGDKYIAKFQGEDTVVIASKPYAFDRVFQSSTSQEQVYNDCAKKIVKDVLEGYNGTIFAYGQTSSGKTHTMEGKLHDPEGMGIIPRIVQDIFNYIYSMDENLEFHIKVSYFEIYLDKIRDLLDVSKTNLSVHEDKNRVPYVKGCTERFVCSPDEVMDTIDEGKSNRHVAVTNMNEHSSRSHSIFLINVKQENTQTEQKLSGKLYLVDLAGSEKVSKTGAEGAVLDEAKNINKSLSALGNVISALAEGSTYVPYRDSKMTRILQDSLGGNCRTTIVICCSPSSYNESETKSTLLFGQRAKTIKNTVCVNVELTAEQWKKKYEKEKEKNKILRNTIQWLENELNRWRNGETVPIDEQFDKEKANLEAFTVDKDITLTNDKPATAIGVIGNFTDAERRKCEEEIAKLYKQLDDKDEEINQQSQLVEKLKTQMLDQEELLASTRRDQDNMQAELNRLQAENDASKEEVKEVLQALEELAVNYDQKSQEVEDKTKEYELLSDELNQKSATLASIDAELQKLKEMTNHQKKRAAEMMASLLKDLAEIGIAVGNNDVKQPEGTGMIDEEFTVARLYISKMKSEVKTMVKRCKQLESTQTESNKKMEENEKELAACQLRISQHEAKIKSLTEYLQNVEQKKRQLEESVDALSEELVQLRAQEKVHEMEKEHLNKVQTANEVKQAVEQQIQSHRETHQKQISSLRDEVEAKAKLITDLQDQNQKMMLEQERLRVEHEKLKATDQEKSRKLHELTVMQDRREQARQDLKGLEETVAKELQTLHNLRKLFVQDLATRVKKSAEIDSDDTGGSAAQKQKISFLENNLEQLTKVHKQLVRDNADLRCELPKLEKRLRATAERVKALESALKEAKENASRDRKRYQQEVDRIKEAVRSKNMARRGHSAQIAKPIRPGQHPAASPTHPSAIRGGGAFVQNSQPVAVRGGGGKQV
Chain of ALK-KIF5B (Homo sapiens) (Q9UM73 whole entry, looked up): as the sequence (Q9UM73 whole entry F1174S) above, with S1174F counted along it

Activity (ALK-KIF5B (Homo sapiens)): < 10%
Activity [1]: < 10%
Activity (ROS1-GOPC (Homo sapiens)): < 10%
Activity [2]: < 10%
half-life [3]: 1.05 h
Activity [4]: < 10%
Activity [5]: < 10%
Activity [6]: < 10%
Activity [7]: < 10%
Activity [8]: < 10%
Cmax [9]: 2920 ng/mL
Activity [10]: < 10%
Activity [11]: < 10%
CLint scaled [12]: 33.5 mL/min/kg
remaining at 0.25 h [13]: 64.6%
AUC(0-inf) [14]: 208 ng·h/mL
Activity (ALK-KLC1 (Homo sapiens)): < 10%
remaining at 0 min [15]: 100%
Activity [16]: < 10%
Activity [17]: < 10%
Structure (SMILES): CCc1cccc(CC)c1N1CCn2cc(-c3nc(Nc4ccc(N5CCN(C(C)=O)CC5)cc4OC)nc4[nH]ncc34)cc2C1=O
